Like-named read-outs stand apart in the source and are kept apart here.
Tests used:
[1] = tested on: CFU-GM, BFU-E and CFU-GEMM progenitor cells; conditions: for Cycling Status of Progenitors, CFU-GM, AGAR Culture / Cycling Status of Progenitors, BFU-E / Cycling Status of Progenitors, CFU-GEMM / Cycling Status of Progenitors, CFU-GM: 80 μg/kg s.c.
[2] = tested on: CD34 positive progenitor cells
progenitor cells = conditions: mice, AMD3100 5 mg/Kg s.c. + MIP-1α 5 μg I.V., 11 hours after rhu G-CSF or saline, blood 1 hour later
Method: One hour later, the mice were sacrificed and the number of progenitor cells per mL of blood were measured.

[3] = tested on: granulocyte macrophage (CFU-GM), erythroid (BFU-E), and multipotential (CFU-GEMM) progenitor cells; conditions: mice; for Fold Change Compared to Time 0, Progenitors, BFU-E / Fold Change Compared to Time 0, Progenitors, CFU-GEMM / Fold Change Compared to Time 0, Progenitors, GM / Absolute Progenitors Per ML Blood, BFU-E / Absolute Progenitors Per ML Blood, CFU-GEMM / Absolute Progenitors Per ML Blood, CFU-GM: methylcellulose culture; for Absolute Number Progenitors Per ML Blood, BFU-E / Absolute Number Progenitors Per ML Blood, CFU-GEMM / Absolute Number Progenitors Per ML Blood, CFU-GM: 1 hour post administration; for Absolute Progenitors Per ML Blood, BFU-E / Absolute Progenitors Per ML Blood, CFU-GEMM / Absolute Progenitors Per ML Blood, CFU-GM: single s.c. 5 mg/Kg

c1cc(CN2CCCNCCNCCCNCC2)ccc1CN1CCCNCCNCCCNCC1 [AMD3100, 1,1′-[1,4-phenylene-bis(methylene)]-bis-1,4,8,11-tetraazacyclotetradecane]
Cycling Status of Progenitors, CFU-GM, AGAR Culture ([1]; P4, T = 24 h after injection): 0%
Cycling Status of Progenitors, BFU-E ([1]; P5, T = 1 h after injection): 0%
Cycling Status of Progenitors, CFU-GEMM ([1]; P5, T = 1 h after injection): 0%
Cycling Status of Progenitors, CFU-GM ([1]; P5, T = 1 h after injection): 0%
Cycling Status of Progenitors, CFU-GM, AGAR Culture ([1]; P5, T = 1 h after injection): 3%
Cycling Status of Progenitors, BFU-E ([1]; P5, T = 3 h after injection): 3%
Cycling Status of Progenitors, CFU-GEMM ([1]; P5, T = 3 h after injection): 0%
Cycling Status of Progenitors, CFU-GM ([1]; P5, T = 3 h after injection): 5%
Cycling Status of Progenitors, CFU-GM, AGAR Culture ([1]; P5, T = 3 h after injection): 0%
Cycling Status of Progenitors, BFU-E ([1]; P5, T = 6 h after injection): 1%
Cycling Status of Progenitors, CFU-GEMM ([1]; P5, T = 6 h after injection): 0%
Cycling Status of Progenitors, CFU-GM ([1]; P5, T = 6 h after injection): 0%
Cycling Status of Progenitors, CFU-GM, AGAR Culture ([1]; P5, T = 6 h after injection): 1%
Cycling Status of Progenitors, BFU-E ([1]; P5, T = 9 h after injection): 0%
Cycling Status of Progenitors, CFU-GEMM ([1]; P5, T = 9 h after injection): 0%
Cycling Status of Progenitors, CFU-GM ([1]; P5, T = 9 h after injection): 0%
Cycling Status of Progenitors, CFU-GM, AGAR Culture ([1]; P5, T = 9 h after injection): 0%
Cycling Status of Progenitors, BFU-E ([1]; P5, T = 24 h after injection): 0%
Cycling Status of Progenitors, CFU-GEMM ([1]; P5, T = 24 h after injection): 0%
Cycling Status of Progenitors, CFU-GM ([1]; P5, T = 24 h after injection): 0%
Cycling Status of Progenitors, CFU-GM, AGAR Culture ([1]; P5, T = 24 h after injection): 0%
cycling state of progenitors ([1]; human donors, prior to and 1, 3, 6, 9 and 24 hours after injection): slow or non-cycling state
time post-administration at which elevation of CD34 positive progenitor cells maximized ([2]; human volunteers, 80 μg/kg s.c.): 6 h
CD34 positive cells ([2]; volunteer P1, 1 Hr after 80 μg/kg s.c.): .04 percentage of the total WBC's
CD34 positive cells ([2]; volunteer P1, 3 Hr after 80 μg/kg s.c.): .07 percentage of the total WBC's
CD34 positive cells ([2]; volunteer P1, 6 Hr after 80 μg/kg s.c.): .11 percentage of the total WBC's
CD34 positive cells ([2]; volunteer P1, 9 Hr after 80 μg/kg s.c.): .11 percentage of the total WBC's
CD34 positive cells ([2]; volunteer P1, Day 2 after 80 μg/kg s.c.): .08 percentage of the total WBC's
CD34 positive cells ([2]; volunteer P2, 1 Hr after 80 μg/kg s.c.): .06 percentage of the total WBC's
CD34 positive cells ([2]; volunteer P2, 3 Hr after 80 μg/kg s.c.): .08 percentage of the total WBC's
CD34 positive cells ([2]; volunteer P2, 6 Hr after 80 μg/kg s.c.): .13 percentage of the total WBC's
CD34 positive cells ([2]; volunteer P2, 9 Hr after 80 μg/kg s.c.): .11 percentage of the total WBC's
CD34 positive cells ([2]; volunteer P2, Day 2 after 80 μg/kg s.c.): .12 percentage of the total WBC's
CD34 positive cells ([2]; volunteer P3, 1 Hr after 80 μg/kg s.c.): .16 percentage of the total WBC's
CD34 positive cells ([2]; volunteer P3, 3 Hr after 80 μg/kg s.c.): .06 percentage of the total WBC's
CD34 positive cells ([2]; volunteer P3, 9 Hr after 80 μg/kg s.c.): .11 percentage of the total WBC's
CD34 positive cells ([2]; volunteer P3, Day 2 after 80 μg/kg s.c.): .07 percentage of the total WBC's
CD34 positive cells ([2]; volunteer P4, 1 Hr after 80 μg/kg s.c.): .07 percentage of the total WBC's
CD34 positive cells ([2]; volunteer P4, 3 Hr after 80 μg/kg s.c.): .09 percentage of the total WBC's
CD34 positive cells ([2]; volunteer P4, 6 Hr after 80 μg/kg s.c.): .09 percentage of the total WBC's
CD34 positive cells ([2]; volunteer P4, 9 Hr after 80 μg/kg s.c.): .1 percentage of the total WBC's
CD34 positive cells ([2]; volunteer P4, Day 2 after 80 μg/kg s.c.): .1 percentage of the total WBC's
CD34 positive cells ([2]; volunteer P5, 1 Hr after 80 μg/kg s.c.): .12 percentage of the total WBC's
CD34 positive cells ([2]; volunteer P5, 3 Hr after 80 μg/kg s.c.): .13 percentage of the total WBC's
CD34 positive cells ([2]; volunteer P5, 6 Hr after 80 μg/kg s.c.): .2 percentage of the total WBC's
CD34 positive cells ([2]; volunteer P5, 9 Hr after 80 μg/kg s.c.): .2 percentage of the total WBC's
CD34 positive cells ([2]; volunteer P5, Day 2 after 80 μg/kg s.c.): .16 percentage of the total WBC's
mobilization of progenitor cells in combination with mu MIP-1α (progenitor cells): additive to greater than additive
Fold Change Compared to Time 0, Progenitors, BFU-E ([3]; Time 2′): 2.07 fold
Fold Change Compared to Time 0, Progenitors, CFU-GEMM ([3]; Time 2′): 1.85 fold
Fold Change Compared to Time 0, Progenitors, GM ([3]; Time 2′): 2.86 fold
Fold Change Compared to Time 0, Progenitors, BFU-E ([3]; Time 15″): 2.72 fold
Fold Change Compared to Time 0, Progenitors, CFU-GEMM ([3]; Time 15″): 3.51 fold
Fold Change Compared to Time 0, Progenitors, GM ([3]; Time 15″): 2.73 fold
Fold Change Compared to Time 0, Progenitors, BFU-E ([3]; Time 30″): 4.24 fold
Fold Change Compared to Time 0, Progenitors, CFU-GEMM ([3]; Time 30″): 4.41 fold
Fold Change Compared to Time 0, Progenitors, GM ([3]; Time 30″): 6.23 fold
Absolute Number Progenitors Per ML Blood, BFU-E ([3]; single s.c. 1 mg/kg): 62 Per ML Blood
Absolute Number Progenitors Per ML Blood, CFU-GEMM ([3]; single s.c. 1 mg/kg): 27.1 Per ML Blood
Absolute Number Progenitors Per ML Blood, CFU-GM ([3]; single s.c. 1 mg/kg): 424 Per ML Blood
Absolute Number Progenitors Per ML Blood, BFU-E ([3]; single s.c. 2.5 mg/kg): 98.9 Per ML Blood
Absolute Number Progenitors Per ML Blood, CFU-GEMM ([3]; single s.c. 2.5 mg/kg): 70.6 Per ML Blood
Absolute Number Progenitors Per ML Blood, CFU-GM ([3]; single s.c. 2.5 mg/kg): 687.6 Per ML Blood
Absolute Progenitors Per ML Blood, BFU-E ([3]; 15″): 134.5 Per ML Blood
Absolute Progenitors Per ML Blood, CFU-GEMM ([3]; 15″): 90.4 Per ML Blood
Absolute Progenitors Per ML Blood, CFU-GM ([3]; 15″): 791.6 Per ML Blood
Absolute Progenitors Per ML Blood, BFU-E ([3]; 30″): 209.3 Per ML Blood
Absolute Progenitors Per ML Blood, CFU-GEMM ([3]; 30″): 113.5 Per ML Blood
Absolute Progenitors Per ML Blood, CFU-GM ([3]; 30″): 1805.5 Per ML Blood
Absolute Progenitors Per ML Blood, BFU-E ([3]; 120″): 102.3 Per ML Blood
Absolute Progenitors Per ML Blood, CFU-GEMM ([3]; 120″): 47.6 Per ML Blood
Absolute Progenitors Per ML Blood, CFU-GM ([3]; 120″): 828.7 Per ML Blood
Absolute Number Progenitors Per ML Blood, BFU-E ([3]; single s.c. 5 mg/kg): 92.8 Per ML Blood
Absolute Number Progenitors Per ML Blood, CFU-GEMM ([3]; single s.c. 5 mg/kg): 69.5 Per ML Blood
Absolute Number Progenitors Per ML Blood, CFU-GM ([3]; single s.c. 5 mg/kg): 608.4 Per ML Blood
Absolute Number Progenitors Per ML Blood, BFU-E ([3]; single s.c. 10 mg/kg): 120.5 Per ML Blood
Absolute Number Progenitors Per ML Blood, CFU-GEMM ([3]; single s.c. 10 mg/kg): 79.8 Per ML Blood
Absolute Number Progenitors Per ML Blood, CFU-GM ([3]; single s.c. 10 mg/kg): 825.6 Per ML Blood
